The source of these data is patent US6410558B1, “Fungicides for the control of take-all disease of plants” (Monsanto Technology LLC, priority 1991, dated 2002).

A value given as a limit tells only on which side of the number the result lay.

The test has as its system Gaeumannomyces graminis var. tritici (Ggt). Kind of test: In vitro Assay: mycelial growth of Ggt on minimal media agar plates containing test compound. To be noted: Gaeumannomyces graminis, dark, 19-20° C., 4 to 5 days, diameter of mycelial growth; for inhibition at 0.1 ppm: 0.1 ppm in minimal media agar, read-out: In vitro (ppm) 0.1, Percent Inhibition; for inhibition at 1 ppm: 1 ppm in minimal media agar, read-out: In vitro (ppm) 1, Percent Inhibition; for inhibition at 10 ppm: 10 ppm in minimal media agar, read-out: In vitro (ppm) 10, Percent Inhibition. It counts as cell-based. Put shortly: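 Ggt mycelial diameter read after 4 to 5 days in darkness at 19-20° C, from three 4-mm plugs placed on Czapek Dox minimal agar containing test compound delivered in acetone. Inhibition expressed as percent versus untreated plates, plug size (4 mm) subtracted from both.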

With `CCNC(=O)c1cc([N+](=O)[O-])ccc1[Si](C)(C)C` [Example 214, N-Ethyl-5-nitro-2-(trimethylsilyl)benzamide], the inhibition at 0.1 ppm was 3%, the inhibition at 1 ppm was found to be 6% and the inhibition at 10 ppm came to 77%.

Consider `CCNC(=O)c1c(-c2ccccc2)cccc1[Si](C)(C)C` [Example 221, N-Ethyl-2-phenyl-6-(trimethylsilyl)benzamide], for which the inhibition at 0.1 ppm is 15%, the inhibition at 1 ppm was 46% and the inhibition at 10 ppm is 85%.

In the case of `CCN(C(=O)c1cc(N(C)C)ccc1[Si](C)(C)C)C(OC)C(C)(C)C` (stereo not drawn) [Example 222, 5-(Dimethylamino)-N-ethyl-N-(1-methoxy-2,2-dimethylpropyl)-2-(trimethylsilyl)benzamide], the inhibition at 0.1 ppm was less than 0%, the inhibition at 1 ppm is less than 0% and the inhibition at 10 ppm amounted to 96%.

For `CCNC(=O)c1cc(C(F)(F)F)ccc1[Si](C)(C)C` [Example 225, N-Ethyl-5-(trifluoromethyl)-2-(trimethylsilyl)benzamide], the inhibition at 0.1 ppm turned out to be 18%, the inhibition at 1 ppm stood at 64% and the inhibition at 10 ppm was found to be 95%.

`CCNC(=O)c1cc(N(C)C)ccc1[Si](C)(C)C` [Example 226, 5-(Dimethylamino)-N-ethyl-2-(trimethylsilyl)benzamide]: the inhibition at 0.1 ppm amounted to 32%, the inhibition at 1 ppm amounted to 91% and the inhibition at 10 ppm was 100%.

For `CCNC(=O)c1c([Si](C)(C)C)ccc(C#N)c1Cl` [Example 229, 2-Chloro-3-cyano-N-ethyl-6-(trimethylsilyl)benzamide], the inhibition at 0.1 ppm is less than 0%, the inhibition at 1 ppm came to 28% and the inhibition at 10 ppm stood at 88%.

As for `CCNC(=O)c1c([Si](C)(C)C)ccc(C)c1Cl` [Example 230, 2-Chloro-N-ethyl-3-methyl-6-(trimethylsilyl)benzamide], the inhibition at 0.1 ppm turned out to be 88%, the inhibition at 1 ppm was determined as 96% and the inhibition at 10 ppm is 96%.

Regarding `CCNC(=O)c1c([Si](C)(C)C)ccc(SC)c1Cl` [Example 231, 2-Chloro-N-ethyl-3-(methylthio)-6-(trimethylsilyl)benzamide], the inhibition at 0.1 ppm was less than 0%, the inhibition at 1 ppm was 76% and the inhibition at 10 ppm is 96%.

Turning to `CCNC(=O)c1c(Cl)ccc(N)c1[Si](C)(C)C` [Example 233, 3-Amino-6-chloro-N-ethyl-2-(trimethylsilyl)benzamide], the inhibition at 0.1 ppm turned out to be 28%, the inhibition at 1 ppm came to 24% and the inhibition at 10 ppm was 76%.

As for `CCNC(=O)c1c(Cl)cc(Cl)cc1[Si](C)(C)C` [Example 234, 2,4-Dichloro-N-ethyl-6-(trimethylsilyl)benzamide], the inhibition at 0.1 ppm is less than 0%, the inhibition at 1 ppm was determined as 32% and the inhibition at 10 ppm was determined as 81%.

With `CCNC(=O)c1c(Cl)cc(C(C)(C)C)cc1[Si](C)(C)C` [Example 235, 2-Chloro-4-(1,1-dimethylethyl)-N-ethyl-6-(trimethylsilyl)benzamide], the inhibition at 0.1 ppm stood at 3%, the inhibition at 1 ppm is less than 0% and the inhibition at 10 ppm came out at 70%.

Take `CCNC(=O)c1c(Br)ccc(OC)c1[Si](C)(C)C` [Example 236, 6-Bromo-N-ethyl-3-methoxy-2-(trimethylsilyl)benzamide]: the inhibition at 0.1 ppm was less than 0%, the inhibition at 1 ppm stood at 68% and the inhibition at 10 ppm is 86%.

Regarding `CCNC(=O)c1c(Cl)ccc(N(C)C)c1[Si](C)(C)C` [Example 237, 6-Chloro-3-(dimethylamino)-N-ethyl-2-(trimethylsilyl)benzamide], the inhibition at 0.1 ppm was determined as 44%, the inhibition at 1 ppm stood at 93% and the inhibition at 10 ppm is 96%.

Consider `CCNC(=O)c1c([Si](C)(C)C)ccc(S(C)(=O)=O)c1Cl` [Example 238, 2-Chloro-N-ethyl-3-(methylsulfonyl)-6-(trimethylsilyl)benzamide], for which the inhibition at 0.1 ppm was less than 0%, the inhibition at 1 ppm is less than 0% and the inhibition at 10 ppm was 72%.

For `CCNC(=O)c1c([Si](C)(C)C)ccc(I)c1Cl` [Example 239, 2-Chloro-N-ethyl-3-iodo-6-(trimethylsilyl)benzamide], the inhibition at 0.1 ppm was determined as 22%, the inhibition at 1 ppm stood at 57% and the inhibition at 10 ppm stood at 87%.

Take `CCNC(=O)c1cc(NC(=O)c2ccccc2)ccc1[Si](C)(C)C` [Example 240, 5-(Benzoylamino)-N-ethyl-2-(trimethylsilyl)benzamide]: the inhibition at 0.1 ppm was 26%, the inhibition at 1 ppm stood at 22% and the inhibition at 10 ppm was determined as 65%.

On to `CCNC(=O)c1c([Si](C)(C)C)ccc(/C=C/[N+](=O)[O-])c1Cl` [Example 241, 2-Chloro-N-ethyl-3-(2-(E)-nitro-ethenyl)-6-(trimethylsilyl)benzamide], for which the inhibition at 0.1 ppm is 13%, the inhibition at 1 ppm is 87% and the inhibition at 10 ppm amounted to 100%.

`CCNC(=O)c1c([Si](C)(C)C)ccc(-c2ccccc2)c1Cl` [Example 242, 2-Chloro-N-ethyl-3-phenyl-6-(trimethylsilyl)benzamide]: the inhibition at 0.1 ppm amounted to 27%, the inhibition at 1 ppm is less than 0% and the inhibition at 10 ppm was found to be 67%.

On to `CCNC(=O)c1c([Si](C)(C)C)ccc(C(C)=O)c1Cl` [Example 243, 3-Acetyl-2-chloro-N-ethyl-6-(trimethylsilyl)benzamide], for which the inhibition at 0.1 ppm was determined as 23%, the inhibition at 1 ppm was 10% and the inhibition at 10 ppm stood at 83%.

Take `CCNC(=O)c1c([Si](C)(C)C)ccc(C(=O)OC)c1Cl` [Example 244, 2-Chloro-3-[(ethylamino)carbonyl]-4-(trimethylsilyl)benzoic acid, methyl ester]: the inhibition at 0.1 ppm was 10%, the inhibition at 1 ppm was found to be 20% and the inhibition at 10 ppm was determined as 53%.

Turning to `CCNC(=O)c1cc(N=C=S)ccc1[Si](C)(C)C` [Example 245, N-Ethyl-5-isothiocyanato-2-(trimethylsilyl)benzamide], the inhibition at 0.1 ppm was 50%, the inhibition at 1 ppm is 100% and the inhibition at 10 ppm turned out to be 100%.

With `CCNC(=O)c1cccc([N+](=O)[O-])c1[Si](C)(C)C` [Example 246, N-Ethyl-3-nitro-2-(trimethylsilyl)benzamide], the inhibition at 0.1 ppm was less than 0%, the inhibition at 1 ppm is 2% and the inhibition at 10 ppm came to 61%.

Regarding `CCNC(=O)c1ccccc1OC(C)(C)C` [Example 247, N-Ethyl-2-(1,1-dimethylethoxy)benzamide], the inhibition at 0.1 ppm was less than 0%, the inhibition at 1 ppm is 16% and the inhibition at 10 ppm came to 59%.

On to `CCNC(=O)c1sccc1[Si](C)(C)C` [Example 248, N-Ethyl-3-(trimethylsilyl)-2-thiophenecarboxamide], for which the inhibition at 0.1 ppm was determined as 10%, the inhibition at 1 ppm came to 10% and the inhibition at 10 ppm worked out at 100%.
